In ChEMBL document CHEMBL5365457, “Selective HDAC3 Inhibitors with Potent In Vivo Antitumor Efficacy against Triple-Negative Breast Cancer” (J Med Chem, 2023):
Calls of active or inactive are those of the source. The rule behind the calls is not given here.

Tests used:
[1] = Tmax in Wistar rat at 5 mg/kg, ip measured upto 24 hrs by HPLC analysis; assay type: ADME, organism-based; conditions: in vivo
[2] = Toxicity in BALB/c mouse implanted with mouse 4T1 cells assessed as neutrophilic infiltration in spleen at 5 to 15 mg/kg, ip measured after 21 days; assay type: organism-based; conditions: in vivo, 504 h, dose 5-15 mg/kg, time 21 day
[3] = Cmax in Wistar rat at 15 mg/kg, ip measured upto 24 hrs by HPLC analysis; assay type: ADME, organism-based; parameters: dose 15 mg/kg, time < 24 hrs, route ip; conditions: in vivo
4T1 [4] = assay: Induction of apoptosis in mouse 4T1 cells assessed as increase in cleaved caspase-3 level by Western blot analysis; assay type: functional, cell-based; conditions: dose 1.0 µM
Histone deacetylase 5 = Histone deacetylase 5 (Homo sapiens, UniProt Q9UQL6); assay: Inhibition of recombinant HDAC5 (unknown origin) incubated for 30 mins by fluorescence based microplate analysis
Chain of Histone deacetylase 5 (Q9UQL6 whole entry): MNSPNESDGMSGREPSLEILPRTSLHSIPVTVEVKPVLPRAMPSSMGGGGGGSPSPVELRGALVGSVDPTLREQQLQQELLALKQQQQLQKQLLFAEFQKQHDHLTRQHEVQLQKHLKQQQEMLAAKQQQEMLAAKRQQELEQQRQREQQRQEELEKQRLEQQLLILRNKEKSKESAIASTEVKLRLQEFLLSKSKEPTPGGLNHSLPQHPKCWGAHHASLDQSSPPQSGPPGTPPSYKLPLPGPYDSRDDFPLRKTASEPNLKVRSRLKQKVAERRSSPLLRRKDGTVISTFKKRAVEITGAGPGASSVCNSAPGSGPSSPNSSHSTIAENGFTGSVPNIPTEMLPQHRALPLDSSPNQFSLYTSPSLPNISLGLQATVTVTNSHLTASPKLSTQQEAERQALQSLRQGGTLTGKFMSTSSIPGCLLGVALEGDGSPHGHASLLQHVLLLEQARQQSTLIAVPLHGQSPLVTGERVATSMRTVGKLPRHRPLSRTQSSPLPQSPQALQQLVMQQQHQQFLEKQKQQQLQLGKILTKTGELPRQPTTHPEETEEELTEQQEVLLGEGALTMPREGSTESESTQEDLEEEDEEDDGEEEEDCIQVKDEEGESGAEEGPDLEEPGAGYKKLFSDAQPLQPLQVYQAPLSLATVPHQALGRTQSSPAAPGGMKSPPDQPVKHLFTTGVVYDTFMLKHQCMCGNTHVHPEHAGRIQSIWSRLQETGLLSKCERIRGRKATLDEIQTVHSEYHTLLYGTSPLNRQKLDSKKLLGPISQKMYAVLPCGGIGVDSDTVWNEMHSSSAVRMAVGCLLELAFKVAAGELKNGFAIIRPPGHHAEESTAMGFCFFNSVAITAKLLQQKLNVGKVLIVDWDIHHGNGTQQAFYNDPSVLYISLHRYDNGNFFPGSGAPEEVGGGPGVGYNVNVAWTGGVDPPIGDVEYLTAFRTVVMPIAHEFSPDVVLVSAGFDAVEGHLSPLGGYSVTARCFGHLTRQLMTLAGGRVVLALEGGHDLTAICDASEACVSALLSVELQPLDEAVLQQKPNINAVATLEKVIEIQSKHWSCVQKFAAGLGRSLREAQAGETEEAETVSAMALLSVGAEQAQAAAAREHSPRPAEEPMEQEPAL

[5] = Selectivity ratio of IC50 for cytotoxicity against human MCF-10A cells assessed as inhibition of cell growth to IC50 for cytotoxicity against human MDA-MB-453 cells assessed as inhibition of cell growth; assay type: toxicity, cell-based; conditions: MCF-10A cells versus MDA-MB-453 cells, read-out: Ratio IC50
[6] = AUC (0 to infinity) in Wistar rat at 5 mg/kg, ip measured upto 24 hrs by HPLC analysis; assay type: ADME, organism-based; parameters: dose 5 mg/kg, time < 24 hrs, route ip; conditions: in vivo
[7] = Apparent volume of distribution in Wistar rat at 15 mg/kg, ip measured upto 24 hrs by HPLC analysis; assay type: ADME, organism-based; conditions: in vivo
[8] = Cytotoxicity against Oxaliplatin-resistant human MDA-MB-231 cell assessed as reduction in cell viability incubated for 72 hrs in presence of oxaliplatin by MTT assay; assay type: functional, cell-based; conditions: Oxaliplatin-resistant MDA-MB-231 cell
[9] = biological target: T1, Histone deacetylase 3 (Mus musculus) (UniProt O88895); assay: Inhibition of HDAC3 in mouse 4T1 cells assessed as increase in acetylation of H4K12 level at 1 uM incubated for 72 hrs by western blot analysis; assay type: cell-based
T1 sequence (whole entry): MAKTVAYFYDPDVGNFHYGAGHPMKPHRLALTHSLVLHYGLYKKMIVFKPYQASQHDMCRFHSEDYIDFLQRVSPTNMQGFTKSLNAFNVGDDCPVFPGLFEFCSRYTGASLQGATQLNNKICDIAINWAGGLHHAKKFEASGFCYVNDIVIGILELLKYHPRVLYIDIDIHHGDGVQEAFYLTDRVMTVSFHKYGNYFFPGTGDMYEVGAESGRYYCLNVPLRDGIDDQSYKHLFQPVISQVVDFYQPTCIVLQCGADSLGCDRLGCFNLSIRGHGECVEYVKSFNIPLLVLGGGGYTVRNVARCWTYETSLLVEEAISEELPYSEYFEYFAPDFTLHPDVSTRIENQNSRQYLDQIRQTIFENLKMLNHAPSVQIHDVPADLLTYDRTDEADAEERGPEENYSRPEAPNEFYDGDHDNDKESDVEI

4T1 [10] = assay: Antitumor activity against mouse 4T1 cells implanted in BALB/c mouse assessed as tumor growth inhibition at 5 mg/kg, ip measured on day 7; assay type: functional; conditions: 4T1, 168 h, time 7 day, read-out: TGI
[11] = biological target: T1, Histone deacetylase 3 (Mus musculus); assay: Inhibition of HDAC3 in mouse 4T1 cells assessed as increase in acetylation of H3K9 level at 1 uM incubated for 72 hrs by western blot analysis; assay type: cell-based
4T1 [12] = assay: Induction of apoptosis in mouse 4T1 cells at 2.75 uM incubated for 72 hrs by annexin/PI staining based flow cytometry analysis (reference value: 1.35%); assay type: functional
4T1 [13] = assay: Antitumor activity against mouse 4T1 cells implanted in BALB/c mouse assessed as upregulation of caspase-3 level in tumor at 5 to 15 mg/kg, ip by Western blot analysis; assay type: functional, organism-based; conditions: dose 5-15 mg/kg
4T1 [14] = assay: In-vivo inhibition of HDAC3 in ip dosed BALB/c mouse implanted with mouse 4T1 cells assessed as hyperacetylation of H3K9 level by Western blot analysis; assay type: functional, organism-based; conditions: dose 5-15 mg/kg
[15] = Cytotoxicity against Oxaliplatin-resistant human MDA-MB-231 cell assessed as reduction in cell viability incubated for 72 hrs by MTT assay; assay type: functional, cell-based; conditions: Oxaliplatin-resistant MDA-MB-231 cell
[16] = Half life in Wistar rat at 15 mg/kg, ip measured upto 24 hrs by HPLC analysis; assay type: ADME, organism-based; conditions: in vivo
4T1 [17] = assay: Antitumor activity against mouse 4T1 cells implanted in BALB/c mouse assessed as reduction in EGFR protein level in tumor at 5 to 15 mg/kg, ip by Western blot analysis; assay type: functional, organism-based; conditions: dose 5-15 mg/kg
[18] = Selectivity ratio of IC50 for cytotoxicity against human HEK293 cells assessed as inhibition of cell growth to IC50 for cytotoxicity against human MDA-MB-453 cells assessed as inhibition of cell growth; assay type: toxicity, cell-based; conditions: HEK293 cells versus MDA-MB-453 cells, read-out: Ratio IC50
[19] = AUMC (0 to infinity) in Wistar rat at 15 mg/kg, ip measured upto 24 hrs by HPLC analysis; assay type: ADME, organism-based; conditions: in vivo
4T1 [20] = assay: Cell cycle arrest in mouse 4T1 cells assessed as accumulation of cells at G2/M phase at 550 nM incubated for 72 hrs by flow cytometry; assay type: functional
[21] = Selectivity ratio of IC50 for cytotoxicity against human MCF-10A cells assessed as inhibition of cell growth to IC50 for cytotoxicity against […] cells assessed as inhibition of cell growth; assay type: toxicity, cell-based; conditions: MCF-10A cells versus 4T1 cells, read-out: Ratio IC50
[22] = Toxicity in BALB/c mouse implanted with mouse 4T1 cells assessed as neutrophilic infiltration in liver at 5 to 15 mg/kg, ip measured after 21 days; assay type: organism-based; conditions: in vivo, 504 h, dose 5-15 mg/kg, time 21 day
Histone deacetylase 3 = Histone deacetylase 3 (Homo sapiens, UniProt O15379); assay: Inhibition of human recombinant HDAC3 at 1 uM measured after 30 mins by fluorescence based microplate assay relative to control
Chain of Histone deacetylase 3 (O15379 whole entry): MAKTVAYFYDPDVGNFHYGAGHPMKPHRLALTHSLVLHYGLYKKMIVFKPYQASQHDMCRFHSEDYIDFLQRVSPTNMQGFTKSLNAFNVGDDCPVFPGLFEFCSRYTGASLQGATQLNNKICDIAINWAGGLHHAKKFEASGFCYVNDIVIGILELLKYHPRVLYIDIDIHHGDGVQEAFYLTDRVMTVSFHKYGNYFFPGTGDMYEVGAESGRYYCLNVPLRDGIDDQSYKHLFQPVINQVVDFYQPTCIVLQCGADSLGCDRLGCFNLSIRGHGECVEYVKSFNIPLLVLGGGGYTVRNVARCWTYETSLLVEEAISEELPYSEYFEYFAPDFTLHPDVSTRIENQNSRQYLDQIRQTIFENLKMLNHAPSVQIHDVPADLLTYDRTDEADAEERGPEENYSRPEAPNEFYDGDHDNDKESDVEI

[23] = Toxicity in BALB/c mouse implanted with mouse 4T1 cells assessed as effect on cell shape in heart at 5 to 15 mg/kg, ip measured after 21 days by H and E staining based assay; assay type: organism-based; conditions: in vivo, 504 h, dose 5-15 mg/kg, time 21 day
4T1 [24] = assay: Antitumor activity against mouse 4T1 cells implanted in BALB/c mouse assessed as reduction in tumor growth at 5 to 15 mg/kg, ip administered 5 times a week for 21 days; assay type: functional, organism-based; conditions: dose 5-15 mg/kg, time 21.0 day
4T1 [25] = assay: Antitumor activity against mouse 4T1 cells implanted in BALB/c mouse assessed as tumor growth inhibition at 5 mg/kg, ip measured on day 21; assay type: functional; conditions: 4T1, 504 h, time 21 day, read-out: TGI

- Tmax [1]: 2 h
- Cmax [3]: 9580 ng/mL
- IC50 (Histone deacetylase 5): > 20 µM
- AUC(0-inf) [6]: 4320 ng·h/mL
- Vz/F [7]: 12.57 (mg/kg)/(ug/ml)
- inhibition [9]: Active
- inhibition [11]: Active
- half-life [16]: 7.2 h
- AUMC [19]: 114.5 ug/ml.hr^2
- inhibition (Histone deacetylase 3): > 70%
SMILES: CCCNNC(=O)c1cnc(NCc2ccc(OC)cc2)cn1
- Activity [2]: Non-Toxic
- Activity (4T1 [4]): Dose-Dependent Effect
- selectivity ratio [5]: 385
- IC50 [8]: 0.447 µM
- inhibition in vivo at 5 mg/kg (4T1 [10]): 76.2%
- Activity (4T1 [12]): 94.6%
- Activity (4T1 [13]): Active
- inhibition (4T1 [14]): Dose-Dependent Effect
- IC50 [15]: 0.754 µM
- Activity (4T1 [17]): Active
- selectivity ratio [18]: 286
- Activity (4T1 [20]): 52.6%
- selectivity ratio [21]: 385
- Activity [22]: Non-Toxic
- Activity [23]: Non-Toxic
- Activity (4T1 [24]): Active
- inhibition in vivo at 5 mg/kg (4T1 [25]): 92.9%
